Results taken from ChEMBL document CHEMBL1140005, “Phenylpropanoic acid derivatives bearing a benzothiazole ring as PPARdelta-selective agonists” (Bioorg Med Chem Lett, 2007).

How the values were obtained:
[1] = target: T1, Peroxisome proliferator-activated receptor delta (Homo sapiens, UniProt Q03181)
T1 sequence (Q03181 whole entry): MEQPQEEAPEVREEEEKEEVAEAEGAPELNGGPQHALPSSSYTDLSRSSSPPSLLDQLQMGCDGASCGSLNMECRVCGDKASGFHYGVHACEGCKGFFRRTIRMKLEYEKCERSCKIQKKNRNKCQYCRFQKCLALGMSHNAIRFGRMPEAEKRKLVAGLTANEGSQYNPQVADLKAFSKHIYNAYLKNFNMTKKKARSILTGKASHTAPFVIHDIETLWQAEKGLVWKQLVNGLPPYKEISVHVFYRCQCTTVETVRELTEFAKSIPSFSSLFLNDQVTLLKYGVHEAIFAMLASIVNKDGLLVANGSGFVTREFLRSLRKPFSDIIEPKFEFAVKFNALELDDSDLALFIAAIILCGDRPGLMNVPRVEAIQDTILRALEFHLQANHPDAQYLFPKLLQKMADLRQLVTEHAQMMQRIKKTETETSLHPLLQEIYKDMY

[2] = target: T2, Peroxisome proliferator-activated receptor gamma (Homo sapiens, UniProt P37231); experiment: Agonist activity at human PPARgamma receptor expressed in HEK293 cells by GAL4 transactivation assay; type: functional, cell-based
T2 sequence (P37231 whole entry): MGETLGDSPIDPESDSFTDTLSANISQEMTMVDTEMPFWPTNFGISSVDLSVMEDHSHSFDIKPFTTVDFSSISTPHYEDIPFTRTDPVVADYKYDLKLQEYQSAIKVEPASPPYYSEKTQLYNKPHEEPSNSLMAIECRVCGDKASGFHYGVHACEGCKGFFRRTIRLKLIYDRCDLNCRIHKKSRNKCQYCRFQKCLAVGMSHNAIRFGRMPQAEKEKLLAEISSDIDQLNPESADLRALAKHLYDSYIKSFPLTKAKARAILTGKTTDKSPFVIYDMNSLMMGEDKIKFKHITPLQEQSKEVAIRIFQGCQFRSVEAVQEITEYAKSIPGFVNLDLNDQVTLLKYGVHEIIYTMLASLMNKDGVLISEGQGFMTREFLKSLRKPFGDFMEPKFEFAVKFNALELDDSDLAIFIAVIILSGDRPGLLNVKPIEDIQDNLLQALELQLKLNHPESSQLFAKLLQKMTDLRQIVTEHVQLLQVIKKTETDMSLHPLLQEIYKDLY

[3] = target: T3, Peroxisome proliferator-activated receptor alpha (Homo sapiens, UniProt Q07869); experiment: Agonist activity at human PPARalpha receptor expressed in HEK293 cells by GAL4 transactivation assay; type: functional, cell-based
T3 sequence (Q07869 whole entry): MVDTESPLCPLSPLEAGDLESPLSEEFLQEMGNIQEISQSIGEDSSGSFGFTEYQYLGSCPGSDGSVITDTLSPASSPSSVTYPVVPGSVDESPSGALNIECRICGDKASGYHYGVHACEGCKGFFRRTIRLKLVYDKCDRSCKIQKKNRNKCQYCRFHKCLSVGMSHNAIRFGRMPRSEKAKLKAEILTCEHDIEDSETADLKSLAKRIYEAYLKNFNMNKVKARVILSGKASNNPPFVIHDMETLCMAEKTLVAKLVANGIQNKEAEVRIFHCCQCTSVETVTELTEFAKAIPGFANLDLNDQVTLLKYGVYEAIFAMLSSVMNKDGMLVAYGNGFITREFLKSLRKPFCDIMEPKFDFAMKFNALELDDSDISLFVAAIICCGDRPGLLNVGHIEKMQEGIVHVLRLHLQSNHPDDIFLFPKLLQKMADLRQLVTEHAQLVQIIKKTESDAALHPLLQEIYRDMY

SMILES	EC50 [1] [µM]	EC50 [2] [µM]	EC50 [3] [µM]
CCc1cc(OCCN(Cc2ccccc2)c2nc3ccccc3s2)ccc1CCC(=O)O	2.97		
CC(C)(C)c1ccc(CN(CCOc2ccc(CCC(=O)O)cc2)c2nc3ccccc3s2)cc1	4.88	6.34	
O=C(O)CCc1ccc(OCCN(Cc2ccc(C(F)(F)F)cc2)c2nc3ccccc3s2)cc1	0.94	3.69	4.46
O=C(O)CCc1ccc(OCCCN(Cc2ccccc2)c2nc3ccccc3s2)cc1	2.55		
O=C(O)CCc1ccc(OCCN(Cc2cccs2)c2nc3ccccc3s2)cc1	1.74		
Cc1cc(CCC(=O)O)ccc1OCCCN(Cc1cccs1)c1nc2ccc(Cl)cc2s1	0.39		
Cc1ccc2nc(N(CCOc3ccc(CCC(=O)O)cc3)Cc3ccccc3)sc2c1	2.61		

The remaining compounds from weak to strong by EC50 [1], led by results:

EC50 [1] [µM]	SMILES	EC50 [2] [µM]	EC50 [3] [µM]
2.81	O=C(O)CCc1ccc(OCCN(Cc2ccccc2)c2nc3ccccc3s2)cc1		
1.36	O=C(O)CCc1ccc(OCCN(Cc2ccccc2)c2nc3ccc(Cl)cc3s2)cc1		
1.17	Cc1cc(OCCN(Cc2ccccc2)c2nc3ccccc3s2)ccc1CCC(=O)O		
